According to patent US7192981B2, “3,4-dihydroxyhydrocinnamic acid derivative” (Bionutrigen Co., Ltd., priority 2005, dated 2007):

Legend:
IRS-1 = test: Phosphorylation of IRS-1 in adipose tissue of treated diabetic mice; assay type: in vivo, mouse; conditions: 2 weeks of DHH105 treatment
Description: (§1) Adipocytes treated with DHH105 for 2 h or insulin for 10 min were homogenized in 5 ml lysis buffer (20 mM Tris, pH 7.4, 1% SDS, 10% glycerol, 150 mM NaCl, 2 mM EDTA, 20 mM NaF, 1 mM NaVO4, 2 mM sodium pyrophosphate, protease inhibitor cocktail, and phosphatase inhibitor cocktail) with a teflon pestle (15 strokes). Homogenized adipocytes were sonicated for 3 min and solubilized for 30 min. The homogenate was centrifuged at 3,000 g for 10 min at 4° C. The protein concentration of the lysate was determined by the Bradford method. After dilution (1 μg/μl protein concentration), the lysates were incubated with anti-insulin receptor-β (IR-β) antibody (Upstate Biotech, Charlottesville, Va.) or anti-IRS-1 antibody (Upstate Biotech) overnight at 4° C. Protein A Sepharose beads (100 μl, Amersham Pharmacia Biotech) were added and the mixture was gently rocked for 2 h at 4° C. […] The membranes were washed and the immunoreactive proteins were detected with an enhanced chemoluminescence western blot detection kit (Amersham Pharmacia Biotech). To examine whether in vivo treatment of STZ-induced diabetic C57BL/6 mice or ob/ob mice with DHH105 also increases phosphorylation of IR-β, and IRS-1, fat tissue was removed from the mice after 2 weeks of DHH105 treatment and phosphorylation of IR-β and IRS-1 was measured by immunoprecipitation and western blot.

IR-β = target: T1, IR-β (Mus musculus, UniProt P15208); test: Phosphorylation of IR-β in adipose tissue of treated diabetic mice; assay type: in vivo; conditions: 2 weeks of DHH105 treatment
T1 construct: from tissue; host or cells: fat (adipose) tissue of STZ-induced diabetic C57BL/6 mice and ob/ob mice
Description: as §1

GLUT4 = GLUT4 translocation, subcellular fractionation and western blot; assay type: cell-based, rat; conditions: 500 μM, 4 h, vs untreated control adipocytes
Description: Adipocytes treated with DHH105 for 4 h or insulin for 30 min were washed three times with HES buffer [8 mM HEPES, 250 mM sucrose, 2 mM EDTA, 20 mM NaF, 50 mM NaVO4, 50 mM sodium pyrophosphate, protease inhibitor cocktail (Sigma), and phosphatase inhibitor cocktail (Sigma), pH 7.4]. Adipocytes were homogenized in 20 ml HES buffer with a potter Elvehjem teflon pestle (15 strokes). Homogenates were centrifuged at 1000 g for 10 min and the supernatant was centrifuged again at 16,000 g for 20 min. The resulting pellet was resuspended in 500 μl HES buffer, carefully laid on a discontinuous sucrose gradient (density top to bottom: 1.0592, 1.1270, 1.1533, 1.1764, 1.2575) and centrifuged at 110,000 g for 70 min. The plasma membrane fraction was obtained from the gradient density of 1.1533, diluted in 50 ml HES buffer, and centrifuged at 16,000 g for 20 min. The pellet (plasma membrane fraction) was resuspended in 500 μl HES buffer and stored at −70° C. To obtain the microsomal membrane fraction, the supernatant from the second centrifugation was centrifuged at 220,000 g for 70 min. The pellet was washed, resuspended in 500 μl HES buffer and stored at −70° C. The protein content of each fraction was measured by the Bradford method. […] The membranes were washed and the immunoreactive proteins were detected with an enhanced chemoluminescence western blot detection kit (Amersham Pharmacia Biotech).

[1] = STZ-induced diabetic C57BL/6 mice

T1 sequence (P15208 753-1372 limits assumed): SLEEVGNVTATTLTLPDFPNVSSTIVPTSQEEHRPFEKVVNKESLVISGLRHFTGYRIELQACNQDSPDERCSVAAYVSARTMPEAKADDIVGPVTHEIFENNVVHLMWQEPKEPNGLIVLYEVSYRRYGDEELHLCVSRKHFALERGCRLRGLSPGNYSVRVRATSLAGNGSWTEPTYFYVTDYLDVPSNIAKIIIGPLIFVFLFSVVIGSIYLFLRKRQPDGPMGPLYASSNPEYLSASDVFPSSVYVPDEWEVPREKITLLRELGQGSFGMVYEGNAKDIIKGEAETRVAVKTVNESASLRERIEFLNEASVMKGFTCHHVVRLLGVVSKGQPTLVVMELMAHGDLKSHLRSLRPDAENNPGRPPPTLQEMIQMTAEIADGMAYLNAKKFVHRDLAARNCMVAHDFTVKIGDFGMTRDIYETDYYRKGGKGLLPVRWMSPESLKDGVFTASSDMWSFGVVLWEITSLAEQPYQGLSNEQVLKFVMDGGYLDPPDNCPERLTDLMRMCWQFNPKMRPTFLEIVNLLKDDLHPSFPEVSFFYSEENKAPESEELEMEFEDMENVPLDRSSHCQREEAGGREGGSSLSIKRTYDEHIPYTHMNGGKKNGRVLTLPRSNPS
T1 sequence (P15208 28-748 limits assumed): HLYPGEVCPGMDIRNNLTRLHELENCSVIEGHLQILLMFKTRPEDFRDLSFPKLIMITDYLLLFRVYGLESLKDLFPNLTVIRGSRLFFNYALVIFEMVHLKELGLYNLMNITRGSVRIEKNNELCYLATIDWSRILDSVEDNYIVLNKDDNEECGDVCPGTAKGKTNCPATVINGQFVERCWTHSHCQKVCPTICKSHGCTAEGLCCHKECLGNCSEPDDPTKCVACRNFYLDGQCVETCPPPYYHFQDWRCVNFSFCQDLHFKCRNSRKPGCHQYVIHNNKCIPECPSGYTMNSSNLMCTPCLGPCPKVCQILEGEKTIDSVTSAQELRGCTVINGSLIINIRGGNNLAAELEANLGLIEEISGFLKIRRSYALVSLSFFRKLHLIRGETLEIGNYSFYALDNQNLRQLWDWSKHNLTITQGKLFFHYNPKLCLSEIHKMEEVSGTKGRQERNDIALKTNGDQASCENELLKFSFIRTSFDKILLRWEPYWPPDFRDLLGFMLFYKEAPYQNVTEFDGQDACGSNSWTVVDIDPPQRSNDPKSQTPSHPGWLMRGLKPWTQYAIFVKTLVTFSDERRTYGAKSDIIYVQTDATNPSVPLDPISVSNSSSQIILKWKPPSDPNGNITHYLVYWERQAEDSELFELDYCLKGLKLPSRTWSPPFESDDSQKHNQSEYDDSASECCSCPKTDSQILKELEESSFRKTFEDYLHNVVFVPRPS

O=C(CCc1ccc(O)c(O)c1)OCc1cccc2ccccc12 [DHH105, 3,4-dihydroxyhydrocinnamic acid naphthalene methyl ester]
phosphorylation of IRS-1 in adipose tissue (IRS-1; [1]): increased | phosphorylation of IRS-1 in adipose tissue (IRS-1; ob/ob mice): increased | phosphorylation of IR-β in adipose tissue (IR-β; [1]): increased | phosphorylation of IR-β in adipose tissue (IR-β; ob/ob mice): increased | amount of GLUT4 in the microsomal membrane fraction (GLUT4): decreased | immunoreactive GLUT4 in the plasma membrane fraction (GLUT4): increased
